IC50 data for ten compounds are collected here from patent US20250270209A1 (INTERLINE THERAPEUTICS, INC., priority 2022, published 2025).

One experiment has as its target LRRK2 wild type enzyme (Homo sapiens, UniProt Q5S007). As to the kind of experiment: Biochemical Assay: LRRK2 TR-FRET (LanthaScreen) kinase assay with LRRKtide substrate. To be noted: LRRK2 Inhibition, Table 8. Put shortly:
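TR-FRET detection (Tb-labelled phospho-LRRKtide antibody, EDTA stop, 30 min) followed a 120 min, 23 °C reaction of 3 nM wild-type human LRRK2 with LRRKtide (400 nM) and ATP (25 μM) in Tris pH 8.0. Compounds: 11-point 3-fold series from 10 μM, 15 min enzyme preincubation.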
In general terms: In TR-FRET formats the signal depends on donor and acceptor labels being close together.

Experiment [1] deals with T1, wild type LRRK2 overexpressed in recombinant HEK-293T cells (Homo sapiens, UniProt Q5S007).
T1 construct: host or cells: HEK293T (transient transfection with pCMV-LRRK2 WT plasmid)
The experiment in a line: pS935 LRRK2 Cell Assay (HTRF, phospho-LRRK2 Ser935). It counts as cell-based. The note with it: LRRK2 Inhibition, Table 8, 2 hours compound incubation. Put shortly: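 Phospho-Ser935 LRRK2 measured by two-antibody HTRF (Eu-cryptate donor, d2 acceptor; 665/615 nm ratio) after overnight detection at 23° C. Before lysis, transiently LRRK2-transfected HEK-293T cells were exposed 2 h at 37° C to a 9-point, 3-fold series from 10 μM, with DMSO at 0.2%.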

T1 sequence (Q5S007 whole entry): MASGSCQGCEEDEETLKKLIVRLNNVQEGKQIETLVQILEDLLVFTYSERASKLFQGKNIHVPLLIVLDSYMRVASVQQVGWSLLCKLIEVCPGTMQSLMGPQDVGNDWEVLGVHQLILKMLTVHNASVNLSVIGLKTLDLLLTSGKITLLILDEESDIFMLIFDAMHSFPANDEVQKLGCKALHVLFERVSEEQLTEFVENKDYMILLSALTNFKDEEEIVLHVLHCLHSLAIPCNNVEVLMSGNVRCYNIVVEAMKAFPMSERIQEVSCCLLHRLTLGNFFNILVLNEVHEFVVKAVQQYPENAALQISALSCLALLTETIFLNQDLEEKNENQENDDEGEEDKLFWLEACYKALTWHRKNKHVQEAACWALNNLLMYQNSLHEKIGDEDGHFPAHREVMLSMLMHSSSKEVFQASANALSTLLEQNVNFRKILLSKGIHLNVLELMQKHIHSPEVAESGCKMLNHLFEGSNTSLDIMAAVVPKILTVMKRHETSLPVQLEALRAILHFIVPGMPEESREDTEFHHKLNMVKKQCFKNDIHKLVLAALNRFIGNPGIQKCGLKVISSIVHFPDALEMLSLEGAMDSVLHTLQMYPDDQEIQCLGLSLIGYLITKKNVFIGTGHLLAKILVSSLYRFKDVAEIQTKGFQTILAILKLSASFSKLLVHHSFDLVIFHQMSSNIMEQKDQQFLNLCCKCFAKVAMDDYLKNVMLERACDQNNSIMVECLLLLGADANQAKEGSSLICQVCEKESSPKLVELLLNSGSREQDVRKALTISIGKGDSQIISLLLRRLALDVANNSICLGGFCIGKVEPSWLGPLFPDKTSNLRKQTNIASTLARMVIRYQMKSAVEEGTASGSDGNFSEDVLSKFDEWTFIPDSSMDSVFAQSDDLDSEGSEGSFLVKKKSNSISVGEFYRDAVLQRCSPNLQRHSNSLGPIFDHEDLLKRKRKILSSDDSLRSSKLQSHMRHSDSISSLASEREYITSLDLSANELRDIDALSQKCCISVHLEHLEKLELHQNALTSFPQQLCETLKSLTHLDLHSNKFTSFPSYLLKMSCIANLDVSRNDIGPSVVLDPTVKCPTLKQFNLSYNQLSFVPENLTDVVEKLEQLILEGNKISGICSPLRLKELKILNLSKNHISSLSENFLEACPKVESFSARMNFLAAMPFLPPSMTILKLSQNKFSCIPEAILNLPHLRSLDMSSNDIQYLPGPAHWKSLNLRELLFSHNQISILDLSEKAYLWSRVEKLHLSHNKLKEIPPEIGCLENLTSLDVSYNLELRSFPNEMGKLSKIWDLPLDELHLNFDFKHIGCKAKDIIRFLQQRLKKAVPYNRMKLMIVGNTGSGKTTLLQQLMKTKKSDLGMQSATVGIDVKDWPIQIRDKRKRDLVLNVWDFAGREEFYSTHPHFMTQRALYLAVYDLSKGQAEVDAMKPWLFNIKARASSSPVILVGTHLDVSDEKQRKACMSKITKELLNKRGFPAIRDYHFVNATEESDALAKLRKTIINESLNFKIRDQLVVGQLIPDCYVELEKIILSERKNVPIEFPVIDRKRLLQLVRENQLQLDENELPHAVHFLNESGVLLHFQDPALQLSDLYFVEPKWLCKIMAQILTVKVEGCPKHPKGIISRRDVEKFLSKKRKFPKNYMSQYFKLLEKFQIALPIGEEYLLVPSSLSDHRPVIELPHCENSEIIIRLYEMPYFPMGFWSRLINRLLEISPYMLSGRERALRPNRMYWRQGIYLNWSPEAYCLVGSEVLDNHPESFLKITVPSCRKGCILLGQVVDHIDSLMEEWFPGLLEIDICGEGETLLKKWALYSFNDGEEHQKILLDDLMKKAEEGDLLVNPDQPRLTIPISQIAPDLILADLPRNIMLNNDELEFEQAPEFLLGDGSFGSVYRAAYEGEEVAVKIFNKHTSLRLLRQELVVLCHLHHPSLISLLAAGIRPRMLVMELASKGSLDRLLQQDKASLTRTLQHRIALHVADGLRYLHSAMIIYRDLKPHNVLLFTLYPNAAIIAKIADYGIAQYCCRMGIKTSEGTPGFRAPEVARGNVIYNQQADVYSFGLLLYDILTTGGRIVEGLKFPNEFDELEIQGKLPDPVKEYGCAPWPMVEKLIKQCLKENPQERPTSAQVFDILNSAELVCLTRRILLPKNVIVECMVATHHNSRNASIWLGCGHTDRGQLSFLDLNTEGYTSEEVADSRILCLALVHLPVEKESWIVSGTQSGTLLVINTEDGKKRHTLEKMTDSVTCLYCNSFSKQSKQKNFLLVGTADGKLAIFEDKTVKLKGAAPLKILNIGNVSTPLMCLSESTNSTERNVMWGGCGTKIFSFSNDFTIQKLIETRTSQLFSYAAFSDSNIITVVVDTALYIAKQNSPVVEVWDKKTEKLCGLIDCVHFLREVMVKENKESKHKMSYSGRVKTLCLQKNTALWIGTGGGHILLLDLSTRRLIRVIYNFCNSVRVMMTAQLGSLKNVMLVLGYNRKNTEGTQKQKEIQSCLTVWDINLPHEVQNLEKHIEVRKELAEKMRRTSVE
Chain of LRRK2 wild type enzyme (Q5S007 whole entry): as above

As a reminder, the IC50 is the concentration that inhibits the measured activity by half. Take `Cc1ncc(NC(=O)Cc2nc3cnc4ccc(C#N)cc4c3n2[C@@H]2CCO[C@H](C)C2)c(C)n1` [Compound 261, N-(2,4-dimethyl-5-pyrimidinyl){3-[(2R,4R)-2-methyltetrahydro-2H-pyran-4-yl]-12-cyano-3,5,8-triazatricyclo[7.4.0.0^2,6]trideca-1,4,6,8,10,12-hexaen-4-yl}acetamide]: the IC50 amounted to 0.512 nM at LRRK2 wild type enzyme and 10.4 nM in experiment [1].

On to `C[C@@H]1C[C@H](n2c(CC(=O)NCc3ccn(C)n3)nc3cnc4ccc(C#N)cc4c32)CCO1` [Compound 157, 2-{8-cyano-1-[(2R,4R)-2-methyloxan-4-yl]-1H-imidazo[4,5-c]quinolin-2-yl}-N-[(1-methyl-1H-pyrazol-3-yl)methyl]acetamide], for which the IC50 against LRRK2 wild type enzyme is 0.505 nM; in experiment [1], 25.7 nM.

In the case of `C[C@@H]1C[C@H](n2c(CC(=O)NC3CC=CC3)nc3cnc4ccc(C#N)cc4c32)CCO1` [Compound 302, N-(3-cyclopenten-1-yl){3-[(2R,4R)-2-methyltetrahydro-2H-pyran-4-yl]-12-cyano-3,5,8-triazatricyclo[7.4.0.0^2,6]trideca-1,4,6,8,10,12-hexaen-4-yl}acetamide], the results for the IC50 (against LRRK2 wild type enzyme; in experiment [1]) were 0.483 nM and 10 nM, respectively.

With `COc1cc(C(F)(F)F)ncc1NC(=O)Cc1nc2cnc3ccc(C#N)cc3c2n1[C@@H]1CCO[C@H](C)C1` [Compound 228, N-[4-methoxy-6-(trifluoromethyl)-3-pyridyl]{3-[(2R,4R)-2-methyltetrahydro-2H-pyran-4-yl]-12-cyano-3,5,8-triazatricyclo[7.4.0.0^2,6]trideca-1,4,6,8,10,12-hexaen-4-yl}acetamide], the values for the IC50 (against LRRK2 wild type enzyme; in experiment [1]) were 0.36 nM and 3.17 nM, respectively.

`CC1CC(n2c(CC3CNC3)nc3cnc4ccc(C#N)cc4c32)CCO1` (centres unmarked) [Compound 70, 2-[(azetidin-3-yl)methyl]-1-(2-methyloxan-4-yl)-1H-imidazo[4,5-c]quinoline-8-carbonitrile]: the IC50 at LRRK2 wild type enzyme is 9.07 nM; in experiment [1] it was 3680 nM.

In the case of `C[C@@H]1C[C@H](n2c(CC(=O)Nc3ccn(CCO)n3)nc3cnc4ccc(C#N)cc4c32)CCO1` [Compound 175, 2-{8-cyano-1-[(2R,4R)-2-methyloxan-4-yl]-1H-imidazo[4,5-c]quinolin-2-yl}-N-[1-(2-hydroxyethyl)-1H-pyrazol-3-yl]acetamide], the IC50 against LRRK2 wild type enzyme worked out at 0.32 nM; in experiment [1] it was 132 nM.

As for `C[C@@H]1C[C@H](n2c(C3CCN(S(=O)(=O)C4CC4)CC3)nc3cnc4ccc(C#N)cc4c32)CCO1` [Compound 120, 2-[1-(cyclopropanesulfonyl)piperidin-4-yl]-1-[(2R,4R)-2-methyloxan-4-yl]-1H-imidazo[4,5-c]quinoline-8-carbonitrile], the half-maximal inhibitory concentration (IC50) is 1.7 nM on LRRK2 wild type enzyme and 268 nM in experiment [1].

For the compound `COc1nc(C)nc(C)c1NC(=O)Cc1nc2cnc3ccc(C#N)cc3c2n1[C@@H]1CCO[C@H](C)C1` [Compound 203, N-(4-methoxy-2,6-dimethyl-5-pyrimidinyl){3-[(2R,4R)-2-methyltetrahydro-2H-pyran-4-yl]-12-cyano-3,5,8-triazatricyclo[7.4.0.0^2,6]trideca-1,4,6,8,10,12-hexaen-4-yl}acetamide], the figures for the IC50 (against LRRK2 wild type enzyme; in experiment [1]) were 0.338 nM and 136 nM, respectively.

Turning to `C[C@@H]1C[C@H](n2c(CC(=O)NCc3cccnc3)nc3cnc4ccc(C#N)cc4c32)CCO1` [Compound 83, 2-{8-cyano-1-[(2R,4R)-2-methyloxan-4-yl]-1H-imidazo[4,5-c]quinolin-2-yl}-N-[(pyridin-3-yl)methyl]acetamide], the IC50 at LRRK2 wild type enzyme came to 0.33 nM; in experiment [1] it was 25.1 nM.

For `C[C@@H]1C[C@H](n2c(C3CC(=O)N(C4CCOCC4)C3)nc3cnc4ccc(C#N)cc4c32)CCO1` (mixture of isomers) [Compound 64, 1-[(2R,4R)-2-methyloxan-4-yl]-2-[1-(oxan-4-yl)-5-oxopyrrolidin-3-yl]-1H-imidazo[4,5-c]quinoline-8-carbonitrile], the IC50 against LRRK2 wild type enzyme is 3.71 nM; in experiment [1] it was 313 nM.
